In patent US20260325540A1 (priority 2023, published 2026):

How the values were obtained:
SARS-CoV-2 3CLpro = SARS-CoV-2 3CLpro (Severe acute respiratory syndrome coronavirus 2, UniProt P0DTD1); assay: FRET based protease assay, SARS-CoV-2 3CL; format: biochemical, SARS-CoV-2 (strain BetaCoV/Wuhan/WIV04/2019)
MERS-CoV 3CLpro = MERS-CoV 3CLpro (Middle East respiratory syndrome-related coronavirus, UniProt K9N638); assay: biochemical; details: MERS IC50, 75 nM MERS-CoV 3CLpro, 6 μM peptide 1 substrate, 25° C., 1.5 hrs, pH 7.5
Sequence of MERS-CoV 3CLpro (K9N638 3248-3553 limits assumed): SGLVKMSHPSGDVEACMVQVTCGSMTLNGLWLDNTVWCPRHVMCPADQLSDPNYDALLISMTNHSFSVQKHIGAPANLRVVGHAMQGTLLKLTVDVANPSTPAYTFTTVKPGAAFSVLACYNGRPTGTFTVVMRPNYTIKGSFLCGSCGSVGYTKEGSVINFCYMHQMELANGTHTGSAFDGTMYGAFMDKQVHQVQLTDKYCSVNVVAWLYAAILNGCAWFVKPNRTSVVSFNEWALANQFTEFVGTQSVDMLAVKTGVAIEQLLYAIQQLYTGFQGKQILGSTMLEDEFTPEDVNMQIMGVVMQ

Row | SMILES | IC50 (SARS-CoV-2 3CLpro) [nM] | IC50 (MERS-CoV 3CLpro) [nM]
1 | CC(C)C[C@@H]1NC(=O)CCCC[C@@H]2CNC(=O)[C@@H]2C[C@@H](C=O)NC1=O [Example 1] | 1000 to 20000 | > 20000
2 | CC(C)C[C@@H]1NC(=O)CCCC[C@H]2CNC(=O)[C@H]2C[C@@H](C=O)NC1=O [Example 2] | 1000 to 20000 | > 20000
3 | CC(C)C[C@@H]1NC(=O)CCCC[C@H]2CNC(=O)[C@@H]2C[C@@H](C=O)NC1=O [Example 4] | < 100 | 100 to 1000
4 | CC(C)C[C@@H]1NC(=O)[C@@H](Cc2ccccc2)CCC[C@@H]2CNC(=O)[C@@H]2C[C@@H](C=O)NC1=O [Example 9] | 100 to 1000 | 1000 to 20000
5 | CC(C)C[C@@H]1NC(=O)[C@@H](Cc2ccccc2)CCC[C@H]2CNC(=O)[C@@H]2C[C@@H](C=O)NC1=O [Example 10] | – | 1000 to 20000
6 | CC(C)C[C@@H]1NC(=O)[C@H](Cc2ccccc2)CCC[C@@H]2CNC(=O)[C@@H]2C[C@@H](C=O)NC1=O [Example 11] | 1000 to 20000 | 1000 to 20000
7 | CC(C)C[C@@H]1NC(=O)[C@H](Cc2ccccc2)CCC[C@H]2CNC(=O)[C@H]2C[C@@H](C=O)NC1=O [Example 12] | 100 to 1000 | 1000 to 20000
8 | CC(C)C[C@@H]1NC(=O)[C@@H](C2CCCC2)CCC[C@H]2CNC(=O)[C@H]2C[C@@H](C=O)NC1=O [Example 13] | 1000 to 20000 | 1000 to 20000
9 | CC(C)C[C@@H]1NC(=O)[C@@H](C2CCCC2)CCC[C@@H]2CNC(=O)[C@@H]2C[C@@H](C=O)NC1=O [Example 14] | 100 to 1000 | 1000 to 20000
10 | CC(C)C[C@@H]1NC(=O)[C@@H](NC(=O)OC(C)(C)C)CCC[C@H]2CNC(=O)[C@H]2C[C@@H](C=O)NC1=O [Example 15] | 100 to 1000 | 100 to 1000
11 | CC(C)C[C@@H]1NC(=O)[C@@H](NC(=O)OC(C)(C)C)CCC[C@@H]2CNC(=O)[C@@H]2C[C@@H](C=O)NC1=O [Example 16] | 100 to 1000 | 1000 to 20000
12 | CC(C)C[C@@H]1NC(=O)[C@@H](Cc2ccccc2)CCC[C@H]2CNC(=O)[C@@H]2C[C@@H](C=O)NC1=O [Example 17] | 100 to 1000 | 100 to 1000
13 | CC(C)C[C@@H]1NC(=O)[C@@H](CC2CCCC2)CCC[C@H]2CNC(=O)[C@@H]2C[C@@H](C=O)NC1=O [Example 18] | 100 to 1000 | 100 to 1000
14 | CC(C)C[C@@H]1NC(=O)[C@@H](NC(=O)OC(C)(C)C)CCC[C@H]2CNC(=O)[C@@H]2C[C@@H](C=O)NC1=O [Example 19] | < 100 | 100 to 1000
15 | CC(C)C[C@@H]1NC(=O)[C@@H](OC(C)(C)C)CCC[C@H]2CNC(=O)[C@@H]2C[C@@H](C=O)NC1=O [Example 20] | 1000 to 20000 | > 20000
16 | CC(C)C[C@@H]1NC(=O)[C@H](Cc2ccccc2)CCC[C@H]2CNC(=O)[C@@H]2C[C@@H](C=O)NC1=O [Example 21] | < 100 | 100 to 1000
17 | CC(C)C[C@@H]1NC(=O)[C@@H](N(C)C(=O)OC(C)(C)C)CCC[C@H]2CNC(=O)[C@@H]2C[C@@H](C#N)NC1=O [Example 22] | > 20000 | > 20000
18 | CC(C)C[C@@H]1NC(=O)C(OC2CCCCC2)CCC[C@H]2CNC(=O)[C@@H]2C[C@@H](C#N)NC1=O (stereo partly drawn) [Example 23] | > 20000 | > 20000
19 | CC(C)C[C@@H]1NC(=O)CCCC[C@H]2CNC(=O)[C@@H]2C[C@@H](C#N)NC1=O [Example 24] | 1000 to 20000 | 1000 to 20000

Row | SMILES | IC50 (SARS-CoV-2 3CLpro) [nM] | IC50 (MERS-CoV 3CLpro) [nM]
20 | CC1(C)[C@@H]2[C@H]3C(=O)N[C@H](C#N)C[C@H]4C(=O)NC[C@@H]4CCCCC(=O)N3C[C@@H]21 [Example 25] | 1000 to 20000 | 1000 to 20000
21 | N#C[C@@H]1C[C@H]2C(=O)NC[C@@H]2CCCCC(=O)N2C[C@@H]3CCC[C@@H]3[C@H]2C(=O)N1 [Example 26] | > 20000 | > 20000
22 | CC(C)C[C@@H]1NC(=O)[C@@H](Cc2ccccc2)CCC[C@H]2CNC(=O)[C@@H]2C[C@@H](C#N)NC1=O [Example 27] | 1000 to 20000 | 1000 to 20000
23 | CC(C)C[C@@H]1NC(=O)[C@@H](C2CCCC2)CCC[C@H]2CNC(=O)[C@@H]2C[C@@H](C#N)NC1=O [Example 28] | 1000 to 20000 | 1000 to 20000
24 | CC(C)C[C@@H]1NC(=O)[C@@H](OC(C)(C)C)CCC[C@H]2CNC(=O)[C@@H]2C[C@@H](C#N)NC1=O [Example 29] | > 20000 | > 20000
25 | CC(C)C[C@@H]1NC(=O)CCCCC[C@H]2CNC(=O)[C@H]2C[C@@H](C=O)NC1=O [Example 30] | 100 to 1000 | 1000 to 20000
26 | CC(C)C[C@@H]1NC(=O)CCCCC[C@@H]2CNC(=O)[C@H]2C[C@@H](C=O)NC1=O [Example 31] | > 20000 | > 20000
27 | CC(C)C[C@@H]1NC(=O)CCCCC[C@H]2CNC(=O)[C@@H]2C[C@@H](C=O)NC1=O [Example 32] | 100 to 1000 | 100 to 1000
28 | CC(C)C[C@@H]1NC(=O)CCCCC[C@@H]2CCNC(=O)[C@H]2C[C@@H](C=O)NC1=O [Example 33] | > 20000 | > 20000
29 | CC(C)C[C@@H]1NC(=O)CCCCC[C@H]2CCNC(=O)[C@@H]2C[C@@H](C=O)NC1=O [Example 34] | 100 to 1000 | 1000 to 20000
30 | CC(C)C[C@@H]1NC(=O)[C@@H](Cc2ccccc2)CCCC[C@@H]2CNC(=O)[C@@H]2C[C@@H](C=O)NC1=O [Example 35] | 1000 to 20000 | –
31 | CC(C)C[C@@H]1NC(=O)[C@@H](Cc2ccccc2)CCCC[C@H]2CNC(=O)[C@H]2C[C@@H](C=O)NC1=O [Example 36] | < 100 | 100 to 1000
32 | CC(C)C[C@@H]1NC(=O)[C@@H](Cc2ccccc2)CCCC[C@H]2CNC(=O)[C@@H]2C[C@@H](C=O)NC1=O [Example 37] | < 100 | 100 to 1000
33 | CC(C)C[C@@H]1NC(=O)CCCCC[C@H]2CNC(=O)[C@H]2C[C@@H](C#N)NC1=O [Example 38] | 1000 to 20000 | > 20000
34 | CC(C)C[C@@H]1NC(=O)[C@@H](Cc2ccccc2)CCCC[C@H]2CNC(=O)[C@H]2C[C@@H](C#N)NC1=O [Example 39] | 100 to 1000 | 1000 to 20000
35 | CC(C)C[C@@H]1NC(=O)[C@@H](Cc2cccc(C(F)(F)F)c2)CCCC[C@H]2CNC(=O)[C@H]2C[C@@H](C#N)NC1=O [Example 40] | 1000 to 20000 | 1000 to 20000
36 | CC(C)C[C@@H]1NC(=O)[C@@H](C2CCCC2)CCCC[C@H]2CNC(=O)[C@H]2C[C@@H](C#N)NC1=O [Example 41] | > 20000 | –
37 | CC(C)C[C@@H]1NC(=O)[C@@H](Cc2ccc(F)cc2)CCCC[C@@H]2CNC(=O)[C@@H]2C[C@@H](C#N)NC1=O [Example 42] | 1000 to 20000 | 1000 to 20000
38 | CC(C)C[C@@H]1NC(=O)[C@@H](Cc2ccc(F)cc2)CCCC[C@H]2CNC(=O)[C@H]2C[C@@H](C#N)NC1=O [Example 43] | 1000 to 20000 | 1000 to 20000

Row | SMILES | IC50 (SARS-CoV-2 3CLpro) [nM] | IC50 (MERS-CoV 3CLpro) [nM]
39 | CC(C)C[C@@H]1NC(=O)[C@@H](NC(=O)C(C)(C)C)CCCC[C@H]2CNC(=O)[C@H]2C[C@@H](C#N)NC1=O [Example 44] | < 100 | 100 to 1000
40 | CC(C)C[C@@H]1NC(=O)CCCCCC[C@H]2CNC(=O)[C@H]2C[C@@H](C=O)NC1=O [Example 45] | 100 to 1000 | 1000 to 20000
41 | CC(C)C[C@@H]1NC(=O)CCCCCC[C@@H]2CNC(=O)[C@@H]2C[C@@H](C=O)NC1=O [Example 46] | 1000 to 20000 | 1000 to 20000
42 | CC(C)C[C@@H]1NC(=O)CCCCCC[C@@H]2CNC(=O)[C@H]2C[C@@H](C=O)NC1=O [Example 47] | 1000 to 20000 | > 20000
43 | CC(C)C[C@@H]1NC(=O)CCCCCC[C@H]2CNC(=O)[C@@H]2C[C@@H](C=O)NC1=O [Example 48] | 100 to 1000 | 100 to 1000
44 | CC(C)C[C@@H]1NC(=O)[C@@H](Cc2ccccc2)CCCCC[C@@H]2CNC(=O)[C@@H]2C[C@@H](C#N)NC1=O [Example 49] | > 20000 | > 20000
45 | CC(C)C[C@@H]1NC(=O)[C@@H](Cc2ccccc2)CCCCC[C@H]2CNC(=O)[C@H]2C[C@@H](C#N)NC1=O [Example 50] | 1000 to 20000 | 1000 to 20000
46 | CC(C)C[C@@H]1NC(=O)CCCCCC[C@@H]2CNCC(=O)[C@H]2C[C@@H](C=O)NC1=O [Example 51] | 1000 to 20000 | > 20000
47 | CC(C)C[C@@H]1NC(=O)CCCCCC[C@H]2CNCC(=O)[C@@H]2C[C@@H](C=O)NC1=O [Example 52] | 100 to 1000 | 1000 to 20000
48 | CC(C)(C)C[C@@H]1NC(=O)[C@@H](NC(=O)C(C)(C)C)CCCC[C@H]2CNC(=O)[C@H]2C[C@@H](C#N)NC1=O [Example 53] | < 100 | 100 to 1000
49 | CC(C)C[C@@H]1NC(=O)[C@@H](NC(=O)C(C)(C)C)CCCC[C@H]2CNC(=O)[C@@H]2C[C@@H](C#N)NC1=O [Example 54] | 100 to 1000 | 100 to 1000
50 | CC(C)(C)C(=O)N[C@H]1CCCC[C@H]2CNC(=O)[C@H]2C[C@@H](C#N)NC(=O)[C@@H]2[C@@H]3[C@H](CN2C1=O)C3(C)C [Example 55] | < 100 | 100 to 1000
51 | CC(C)C[C@@H]1NC(=O)[C@@H](NC(=O)OC(C)(C)C)CCCC[C@H]2CNC(=O)[C@H]2C[C@@H](C#N)NC1=O [Example 56] | 100 to 1000 | 100 to 1000
52 | CC(C)C[C@H]1C(=O)N[C@H](C#N)C[C@@H]2C(=O)NC[C@@H]2CCCC[C@H](NC(=O)C(C)(C)C)C(=O)N1C [Example 57] | 100 to 1000 | 1000 to 20000
53 | CC(C)C[C@@H]1NC(=O)[C@@H](NC(=O)C(C)(C)C)CC/C=C/[C@H]2CNC(=O)[C@H]2C[C@@H](C#N)NC1=O [Example 58] | < 100 | 100 to 1000
54 | CC(C)C[C@@H]1NC(=O)[C@@H](NC(=O)C(C)(C)C)CC/C=C\[C@H]2CNC(=O)[C@H]2C[C@@H](C#N)NC1=O [Example 59] | 100 to 1000 | 1000 to 20000
55 | CC(C)(C)C[C@@H]1NC(=O)[C@@H](NC(=O)OC(C)(C)C)CCCC[C@H]2CNC(=O)[C@H]2C[C@@H](C#N)NC1=O [Example 60] | < 100 | 100 to 1000
56 | CC(C)(C)OC(=O)N[C@H]1CCCC[C@H]2CCNC(=O)[C@H]2C[C@@H](C#N)NC(=O)[C@@H]2[C@@H]3[C@H](CN2C1=O)C3(C)C [Example 96] | – | < 100
